Measurements from patent US20030176390A1, “Methods of treating insulin resistance syndrome and diabetes” (priority 2001, published 2003).

Columns and labels:
rat adipocytes = experiment: In vitro lipolysis assay (antilipolytic activity in rat adipocytes); type: cell-based; settings: Rattus norvegicus, Adipocyte, 1 h; norepinephrine-stimulated lipolysis, glycerol assayed, 60 min; read-out: Lipo ec50
Procedure: Determination of Antilipolytic Activity in Rat Adipocytes
Isolation of Adipocytes from Epididymal Fat Pads
Adipose tissue is removed from anesthetized rats and rinsed twice in incubation medium (2.09 g sodium bicarbonate and 0.04 g EDTA, disodium salt, in 1 L Krebs buffer). Each rat (300-350 g) yields approximately 4 mL of adipose tissue. The adipose tissue (35 mL) is cut into small pieces with scissors and washed with incubation medium (50 mL). The mixture is poured into the barrel of a 50 mL syringe to which is attached a short piece of clamped tubing instead of a needle. The aqueous phase is allowed to drain. A second wash with incubation medium is passed through the syringe. The tissue is added to 50 mL of collagenase solution (collagenase (90 mg), bovine serum albumin (BSA) (500 mg), and 0.1 M calcium chloride solution (1 mL), in incubation medium (50 mL)) in a 1 L bottle. The mixture is shaken in an environmental at 37° C. for about 60 minutes under an atmosphere of 95% oxygen/5% carbon dioxide to effect digestion of the tissue. The dispersed cells are poured through 2 layers of cheese cloth into a 100 mL plastic beaker. The undigested clumps in the cloth are rinsed once with incubation medium (20 mL). The cells in the beaker are centrifuged in 2 plastic tubes for 30 seconds at room temperature at 300 rpm. The aqueous phase is aspirated from beneath the loosely packed layer of floating fat cells and discarded. The adipocytes are gently poured into a 250 mL plastic beaker containing 100 mL of rinse solution (1 g BSA per 100 mL incubation medium). After gentle stirring the centrifugation step is repeated. Another wash with rinse solution follows. The cells are pooled and their volume is estimated with a graduated cylinder. The adipocytes are diluted in twice their volume of assay buffer (incubation medium (120 mL), BSA (1.2 g), pyruvic acid (13 mg)).
The assay is performed in 20 mL plastic scintillation vials and the total assay volume is 4.2 mL. Assay buffer (2.5 mL), diluted adipocytes (1.5 mL), and a solution of the compound to be tested (12.3 μL) adenosine agonist (12.3 μl; varying concentration) is incubated in the environmental shaker for 15 minutes, then the reaction is started with norepinephrine solution (41.2 μL) (10 nM, in a carrier solution containing water (100 mL), BSA (4 mg), and 0.1 M EDTA (20 μL))and adenosine deaminase (1 μg/mL, 41.2 μl). After sixty minutes in the shaker the reaction is terminated by putting the vials on ice. […] The hard lipid layer is removed by aspiration and the aqueous layer is assayed for glycerol (400 μl of sample). The positive control is done in the absence of any adenosine agonist, substituting water in place of the solution to be tested.

| melting point | EC50 (rat adipocytes) [nM] | SMILES |
| --- | --- | --- |
| 131 to 133 °C | 63.5 | OC[C@H]1C[C@@H](n2cnc3c(N[C@H]4CCN(c5cccc(Cl)c5)C4)ncnc32)[C@H](O)[C@@H]1O [Example 57, (1R,2S,3R,5R)-3-[6-[1-(3-chlorophenyl)-pyrrolidin-3(S)-ylamino]-purin-9-yl]-5-hydroxymethylcyclopentane-1,2-diol] |
| 215 °C (dec.) | 18 | CC[C@H](C)NC(=O)[C@H]1C[C@@H](n2cnc3c(N[C@H]4CCN(c5ccc(C(F)(F)F)cn5)C4)ncnc32)[C@H](O)[C@@H]1O [Example 61, (1S,2R,3S,4R)-2,3-dihydroxy-4-{6-[1-(5-trifluoromethyl-pyridin-2-yl)-pyrrolidin-3(S)-ylamino]-purin-9-yl}-cyclopentanecarboxylic acid-1(S)-methylpropylamide] |
| 114 to 116 °C | 247 | C[C@H]1C[C@@H](n2cnc3c(N[C@H]4CCN(c5ccc(C(F)(F)F)cn5)C4)ncnc32)[C@H](O)[C@@H]1O [Example 31, (1R,2S,3R,5S)-5-methyl-3-[6-[1-(5-trifluoromethylpyridin-2-yl)pyrrolidin-3(S)-ylamino]-purin-9-yl]cyclopentane-1,2-diol] |
| 160 °C (dec.) | 178 | Cl.Cl.OC[C@H]1C[C@@H](n2cnc3c(N[C@H]4CCNC4)ncnc32)[C@H](O)[C@@H]1O [Example 26, (1R,2S,3R,5R)-5-hydroxymethyl-3-[6-((3S)-pyrrolidin-3-ylamino)-purin-9-yl]cyclopentane-1,2-diol dihydrochloride] |
| 110 to 111 °C | 17 | COC[C@H]1C[C@@H](n2cnc3c(N[C@H]4CCN(c5ccc(Br)cn5)C4)ncnc32)[C@H](O)[C@@H]1O [Example 52, (1R,2S,3R,5R)-3-[6-[1-(5-bromopyridin-2-yl)pyrrolidin-3(S)-ylamino]-purin-9-yl]-5-methoxymethylcyclopentane-1,2-diol] |
| 140 °C | 10.5 | N#Cc1ccc(N2CC[C@H](Nc3ncnc4c3ncn4[C@@H]3C[C@H](CO)[C@@H](O)[C@H]3O)C2)cc1 [Example 40, 4-[3(S)-[9-((1R,2S,3R,5R)-1,2-dihydroxy-5-hydroxymethylcyclopent-3-yl)-9H-purin-6-ylamino]pyrrolidin-1-yl]benzonitrile] |
| 97 to 99 °C | 17.6 | OC[C@H]1C[C@@H](n2cnc3c(N[C@H]4CCN(c5ccccc5)C4)ncnc32)[C@H](O)[C@@H]1O [Example 39, (1R,2S,3R,5R)-5-hydroxymethyl-3-[6-[1-(phenyl)-pyrrolidin-3(S)-ylamino]-purin-9-yl]cyclopentane-1,2-diol] |
| 118 to 121 °C | 4.2 | OC[C@H]1C[C@@H](n2cnc3c(N[C@H]4CCN(c5ccc(Cl)cn5)C4)ncnc32)[C@H](O)[C@@H]1O [Example 33, (1R,2S,3R,5R)-3-[6-[1-(5-chloropyridin-2-yl)pyrrolidin-3(S)-ylamino]-purin-9-yl]-5-hydroxymethylcyclopentane-1,2-diol] |
| 130 °C (dec.) | 3.07 | OC[C@H]1O[C@@H](n2cnc3c(NC4CCN(c5ccc(Cl)nn5)C4)ncnc32)[C@H](O)[C@@H]1O (stereo partly drawn) [Example 22, (2R,3R,4S,5R)-5-hydroxymethyl-2-[6-[1-(6-chloropyridazin-3-yl)pyrrolidin-3-ylamino]-purin-9-yl]-tetrahydrofuran-3,4-diol] |
| 122 to 124 °C | 18.6 | COC[C@H]1C[C@@H](n2cnc3c(N[C@H]4CCN(c5ccc(Cl)nn5)C4)ncnc32)[C@H](O)[C@@H]1O [Example 51, (1R,2S,3R,5R)-3-[6-[1-(6-chloropyridazin-3-yl)pyrrolidin-3(S)-ylamino]-purin-9-yl]-5-methoxymethylcyclopentane-1,2-diol] |
| 119 to 122 °C | 182 | OC[C@H]1C[C@@H](n2cnc3c(N[C@H]4CCN(c5nccc6ccccc56)C4)ncnc32)[C@H](O)[C@@H]1O [Example 41, (1R,2S,3R,5R)-5-hydroxymethyl-3-[6-[1-(isoquinolin-1-yl)pyrrolidin-3(S)-ylamino]-purin-9-yl]cyclopentane-1,2-diol] |
| 140 to 143 °C | 226 | COC[C@H]1C[C@@H](n2cnc3c(N[C@H]4CCN(c5ncc(C(F)(F)F)cc5Cl)C4)ncnc32)[C@H](O)[C@@H]1O [Example 44, (1R,2S,3R,5R)-3-[6-[1-(3-chloro-5-trifluoromethylpyridin-2-yl)pyrrolidin-3(S)-ylamino]-purin-9-yl]-5-methoxymethylcyclopentane-1,2-diol] |
| 128 °C | 27.8 | COC[C@H]1C[C@@H](n2cnc3c(N[C@H]4CCN(c5ccc(C(F)(F)F)cc5)C4)ncnc32)[C@H](O)[C@@H]1O [Example 54, (1R,2S,3R,5R)-5-methoxymethyl-3-[6-[1-(4-trifluoromethylphenyl)pyrrolidin-3(S)-ylamino]-purin-9-yl]cyclopentane-1,2-diol] |
